Values of other authors, collected in PMC6797481, “Identification of an allosteric binding site on the human glycine transporter, GlyT2, for bioactive lipid analgesics” (eLife, 2019).

System: rat model of neuropathic pain
Parameters: method as in Mostyn et al., 2019
Details: ref Mostyn et al., 2019; cited from earlier work

## oleoyl d-Lysine
  analgesia: produces analgesia
  side effects: minimal side effects
